Experimental data taken from patent US7115574B2, “System and method for support legacy operating system booting in a legacy-free system” (priority 2001, dated 2006).

Key:
[1] = tested on: N9 clone of murine microglial cells; assay: TNF-α, IL-6 and NO2− production by LPS+IFN-γ activated microglia; format: cell-based
Experimental: See Delgado, R., Carlin, A., Alraghi, L., Demitri, M., Meda, L., Galimberti, D., Pierluigi, B., Lipton, J. M., Catania, A., Melanocortin Peptides Inhibit Production of Proinflammatory Cytokines and Nitric Oxide by Activated Microglia, 63 J. of Leukocyte Biol. 740 (1998). […] The N9 clone of murine microglial cells was obtained by immortalization of embryonic brain cultures with the 3RV retrovirus carrying an activated v-myconcogene. N9 cells were cultured in T-75-cm^2 culture flasks (Coming, Cambridge, Mass.) and maintained at 37° C. in a humidified incubator under 5% CO2 atmosphere in RPMI 1640 supplemented with 2 mM L-glutamine, 50 U/mL penicillin G, 50 μg/mL streptomycin sulfate (GIBCO-BBL, Paisley, UK), and 10% heat-inactivated fetal bovine serum (FBS, Hyclone Lab, Inc., Logan, Utah) until experiments were performed. Cells were used between the first and the tenth passage.
Sub-confluent microglial cells were washed twice with phosphate-buffered saline (PBS) and incubated with trypsin 0.025% and ethylenediaminetetraacetate (EDTA) 0.02% without calcium and magnesium for 3 min. at 37° C. to detach the cells from the culture flask. Cells were then resuspended in medium and incubated in 24-well tissue-culture plates at a concentration of 2×10^5 cells/mL for 16 h in a humidified incubator (37° C., 5% CO2). Growth medium was removed and cell monolayers were stimulated with 10 ng/mL lipopolysaccharide (LPS, from Escherichia coli 055:B5, Sigma Chemical Co., St. Louis, Mo.) plus 1 U/ml, murine IFN-γ (Sigma). […] Although production of TNF-α and NO was reduced to even much lower concentrations of the peptides, concentrations in the micromolar range had the most profound and consistent inhibitory effects. […] Cell-free supernatants were harvested after 24 h incubation and assayed for TNF-α, IL-6 and NO2. Viability of cells was assessed by trypan blue exclusion for each experimental condition: it was consistently >98%. Dexamethasone (Sigma) and N-monomethyl-L-arginine (L-NMMA: 100 μM, Cayman Chemical, Ann Arbor, Mich.) were used as positive controls for TNF-α and NO inhibition, respectively. Tests were repeated in at least three independent experiments and assays were performed in triplicate.
TNF-α bioactivity was measured in supernatants of cell cultures by standard cytotoxicity assay using L929 cells and recombinant human TNF-α (Sigma) as standard. The detection limit of the bioassay was 20 pg/mL. IL-6 was measured using a commercial murine enzyme-linked immunosorbent assay (ELISA: RPN 2714, Amersham, Little Chalfont, UK).
NO is rapidly oxidized to nitrite in culture medium, and nitrite (NO2^−) concentration is an indicator of NO production. Cell-free culture supernatants were mixed with equal amounts of Griess reagent (1% sulfanilamide, 0.1% naphtylethylenediamide in 2.5% phosphoric acid) in wells of 96-well ELISA plates. Samples were incubated at room temperature for 10 min and absorbance was measured at 540 nm with the use of a microplate reader. Nitrite […] concentrations were calculated using a sodium nitrite standard curve.
Effects of melanocortin peptides on cytokine and NO production were evaluated by repeated measures analysis of variance followed by Dunnet's test for specific comparisons. Probability values less than 0.05 were considered significant.

[2] = tested on: N9 clone of murine microglial cells; assay: Northern blot of TNF-α and iNOS mRNA in activated microglia; format: cell-based; conditions: peptide prior to LPS and IFN-γ
Experimental: Total cellular RNA was extracted from 10^6 adherent microglial cells plated in six-well tissue culture plates (Corning). Electrophoresis of RNA samples (10 μg/lane) was performed in 1% agarose/2.2 M formaldehyde gels and the gels subsequently blotted onto nylon filters by capillary action and baked for 2 h before prehybridization. The cDNA fragments encoding murine TNF-α and mouse macrophage iNOS were ^32P-labeled using the Ready-To-Go DNA Labeling Kit (Pharmacia, Uppsala, Sweden) before hybridization of nylon filters and autoradiography. Blots were subsequently rehybridized with human glyceraldehyde-3-phosphate dehydrogenase (G-3-PDH) cDNA probe as an internal control (Clontech Laboratories, Inc., Palo Alto, Calif.).

[3] = tested on: C. albicans; assay: C. albicans colony forming units (candidacidal activity); format: cell-based; conditions: FIG. 2
Experimental: C. albicans (clinical isolate) was obtained from the collection of the Department of Microbiology, Ospedale Maggiore di Milano and maintained on Sabouraud's agar slants and periodically transferred to Sabouraud's agar plates and incubated for 48 hours at 28° C. To prepare a stationary growth phase yeast, a colony was taken from the agar plate and transferred into 30 ml Sabouraud-dextrose broth and incubated for 72 hours at 32° C. Cells were centrifuged and suspended in Hank's balanced salt solution (“HBSS”) to the desired concentration. Viability, determined by the exclusion of 0.01% methylene blue, remained >98%.
C. albicans (1×10^6/ml in HBSS) was incubated in the presence or absence or α-MSH(1-13) (SEQ ID NO: 3) or (11-13) (SEQ ID NO: 1) at concentrations in the range of 10^−15 M to 10^−6 M for 2 hours at 37° C. Cells were then washed in cold distilled water and diluted with HBSS to a concentration of 100 organisms/ml. One-ml aliquots were dispensed on blood agar plates and incubated for 48 hours at 37° C. Organism viability was estimated from the number of colonies formed.
In subsequent experiments using familiar procedures we compared activity of α-MSH(4-10) (SEQ ID NO: 10), (6-13) (SEQ ID NO: 2), (11-13) (SEQ ID NO: 1), ACTH(1-39) (SEQ ID NO: 9), (18-39) (SEQ ID NO: 11) and fluconazole, the latter an established antifungal agent. Melanocortin peptides and fluconazole were tested in concentrations of 10^−6 M to 10^−4 M. There were at least six replicates for each concentration of peptide. […]

[4] = tested on: C. albicans; assay: Horse serum-induced germ tube formation (germination) of C. albicans; format: cell-based; conditions: 10^−6M, 60 minutes at 37° C. after horse serum induction
Experimental: C. albicans from stationary phase cultures were washed twice with distilled water and suspended in HBSS to a final concentration of 2×10^6/ml. Hyphal growth was induced by addition of 10% inactivated horse serum (GIBCO/BRL, Great Britain) to yeast incubated for 45 minutes at 37° C. with continuous shaking. Horse serum was removed by washing cells twice with HBSS and incubation was continued for 60 minutes at 37° C. in the presence of α-MSH(1-13) (SEQ ID NO: 3), (6-13) (SEQ ID NO: 2) or (11-13) (SEQ ID NO: 1) at a concentration of 10^−6M with continuous shaking. The percentage of filamentous cells was evaluated under a light microscope with the aid of hemocytometer. Experiments were run in triplicate and at least 200 cells were scored. Photomicrographs were taken with a MC100 camera attached to an Axioskop Zeiss microscope.

[5] = Lipton and Catania, Immunol. Today 1997; cited from earlier work
[6] = microglia stimulated with LPS+IFN-γ for 24 hr, micromolar concentrations

ACTH(1-24): melanocortin peptide ACTH(1-24) (Sigma) (SYSMEHFRWGKPVGKKRRPVKVYP; Designed polypeptide with anti-inflammatory, anti-microbial, anti-fungal, and anti-viral properties.) [reference compound]
concentration most effective at inhibiting cytokine formation ([1]; LPS+IFN-γ stimulated microglia, 1-100 μM tested): 10 to 25 µM
reduction of production of IL-6 [1, 6]: 65%
reduction of production of NO2^− [1, 6]: 41%
reduction of production of TNF-α [1, 6]: 38%
transcription levels (mRNA) for TNF-α and iNOS [2]: inhibition of mRNA transcription

HFRWGKPV (Ac-HFRWGKPV-NH2) [α-MSH(6-13), octapeptide fragment of α-MSH]
relative potency in reducing C. albicans viability ([3]; 10^−4M melanocortin peptides): most effective
reduction in the number of filamentous cells / inhibition of germ tube formation [4]: approximately 50%

α-MSH(4-10): core α-MSH sequence (4-10) [reference compound]
inhibition of CFU ([3]; 10^−4M peptide as printed): approximately 50%
toxicity [5]: very low toxicity
